The values that follow come from paper PMC8867174, “S-Nitrosation of Arabidopsis thaliana Protein Tyrosine Phosphatase 1 Prevents Its Irreversible Oxidation by Hydrogen Peroxide” (Frontiers in Plant Science, 2022).

The target of assay [1] is T1, His-AtPTP1 (Arabidopsis thaliana Protein Tyrosine Phosphatase 1) (Arabidopsis thaliana, UniProt O82656).
T1 construct: gene PTP1
T1 sequence (O82656 1-340): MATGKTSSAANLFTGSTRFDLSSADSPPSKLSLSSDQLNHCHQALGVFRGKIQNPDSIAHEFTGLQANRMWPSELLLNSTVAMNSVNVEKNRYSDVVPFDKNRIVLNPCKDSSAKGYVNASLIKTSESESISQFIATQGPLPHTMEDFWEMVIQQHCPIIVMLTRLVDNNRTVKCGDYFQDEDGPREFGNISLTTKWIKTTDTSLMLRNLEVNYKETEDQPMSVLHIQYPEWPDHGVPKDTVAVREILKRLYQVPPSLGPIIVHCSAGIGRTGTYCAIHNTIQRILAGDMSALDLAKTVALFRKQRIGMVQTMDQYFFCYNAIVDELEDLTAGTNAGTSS
Description: pNPP hydrolysis after overnight pre-treatment, […] nm. The class given is biochemical. The following applies: covalent (NO donor, S-nitrosation); 250 uM to 1 mM SNAP overnight 25 C, removed by gel filtration; assay 1 mM pNPP, pH 6.3, 25 C.

The target in assay [2] is T1, His-AtPTP1 (Arabidopsis thaliana Protein Tyrosine Phosphatase 1). Description: pNPP hydrolysis after overnight pre-treatment, […] nm; biotin switch LC-MS/MS. The class given is biochemical. The following applies: covalent (S-nitrosation of catalytic C265, reversible by DTT); 100 or 500 uM GSNO overnight 25 C, removed by gel filtration; assay 1 mM pNPP, pH 6.3, 25 C, no DTT. (In general: Size exclusion chromatography separates by hydrodynamic size, large species first.)

`CC(=O)NC(C(=O)O)C(C)(C)SN=O` (centres unmarked) [S-nitroso-N-acetylpenicillamine]: the relative activity result in assay [1] is on record as “Treatment of His-AtPTP1 with SNAP also led to a significant decrease in its activity”.

As for `N[C@@H](CCC(=O)N[C@@H](CSN=O)C(=O)NCC(=O)O)C(=O)O` [S-nitrosoglutathione], in assay [2], the relative activity result is “GSNO inhibited the enzymatic activity of His-AtPTP1”.
